Measured values as given in ChEMBL document CHEMBL3097998, “Oxidative cleavage of DNA by pentamethine carbocyanine dyes irradiated with long-wavelength visible light” (Bioorg Med Chem Lett, 2014).
Activity calls are given as the source filed them. The calls are words filed in the database; no cut-off is given here.

Experiments:
Escherichia coli [1] = test: Induction of Escherichia coli pUC19 DNA photocleavage at 10 uM treated for 60 mins followed by irradiation at 575 nm for 60 mins by agarose gel electrophoresis in presence of sodium benzoate
DNA [2] = test: Binding affinity to calf thymus DNA at 10 uM after 60 mins by UV-visible absorption spectra analysis; type: nucleic-acid assay; details: Bos taurus
DNA [3] = test: Binding affinity to calf thymus DNA at 10 uM using sequential DNA addition followed by 15 mins incubation under dark condition by UV-visible spectroscopy; type: nucleic-acid assay; details: Bos taurus
DNA [4] = test: Binding affinity to calf thymus DNA at 10 uM incubated for 60 mins under dark condition by fluorescence emission spectra analysis; type: nucleic-acid assay; details: Bos taurus
Escherichia coli [5] = test: Induction of Escherichia coli pUC19 DNA cleavage assessed as conversion of supercoiled DNA to linear and nicked form of DNA at 10 uM after 60 mins by agarose gel electrophoresis
Escherichia coli [6] = test: Induction of Escherichia coli pUC19 DNA photocleavage at 10 uM treated for 60 mins followed by irradiation at 575 nm for 60 mins by agarose gel electrophoresis in presence of sodium azide
Escherichia coli [7] = test: Induction of Escherichia coli pUC19 DNA photocleavage assessed as conversion of supercoiled DNA to linear and nicked form of DNA at 10 uM treated for 60 mins followed by irradiation at 588 nm for 60 mins by agarose gel electrophoresis (reference value: 15%)
Escherichia coli [8] = test: Induction of Escherichia coli pUC19 DNA photocleavage assessed as conversion of supercoiled DNA to linear and nicked form of DNA at 10 uM treated for 60 mins followed by irradiation at 700 nm for 60 mins by agarose gel electrophoresis (reference value: 3%)
Escherichia coli [9] = test: Induction of Escherichia coli pUC19 DNA photocleavage assessed as conversion of supercoiled DNA to linear and nicked form of DNA at 10 uM treated for 60 mins followed by irradiation at 623 nm for 60 mins by agarose gel electrophoresis (reference value: 10%)
Escherichia coli [10] = test: Induction of Escherichia coli pUC19 DNA photocleavage assessed as conversion of supercoiled DNA to linear and nicked form of DNA at 10 uM treated for 60 mins followed by irradiation at 575 nm for 60 mins by agarose gel electrophoresis (reference value: 6 +/- 2%)
Escherichia coli [11] = test: Induction of Escherichia coli pUC19 DNA photocleavage assessed as conversion of supercoiled DNA to linear and nicked form of DNA after 60 mins followed by irradiation at 575 nm for 60 mins by agarose gel electrophoresis

| SMILES | Activity (Escherichia coli [1]) | Activity (DNA [2]) | Activity (DNA [3]) | Activity (DNA [4]) | Activity (Escherichia coli [5]) [%] | Activity (Escherichia coli [6]) | Activity (Escherichia coli [7]) [%] | Activity (Escherichia coli [8]) [%] | Activity (Escherichia coli [9]) [%] | Activity (Escherichia coli [10]) [%] | Activity (Escherichia coli [11]) |
| --- | --- | --- | --- | --- | --- | --- | --- | --- | --- | --- | --- |
| CC1(C)C(/C=C/C(Cl)=C/C=C2/N(CCC[N+](C)(C)C)c3ccc4ccccc4c3C2(C)C)=[N+](CCC[N+](C)(C)C)c2ccc3ccccc3c21 | inactive | Active | Active | Active | 5 | inactive | 55 | 67 | 48 | 91 | Dose-dependent effect |
| CC1(C)C(/C=C/C=C/C=C2/N(CCC[N+](C)(C)C)c3ccc4ccccc4c3C2(C)C)=[N+](CCC[N+](C)(C)C)c2ccc3ccccc3c21 | inactive | Active | Active | Active | 1 | inactive | 20 | 34 | 41 | 47 | – |
| CN1/C(=C/C=C(Br)/C=C/C2=[N+](C)c3ccc4ccccc4c3C2(C)C)C(C)(C)c2c1ccc1ccccc21 | inactive | Active | Active | Active | 3 | inactive | 55 | 49 | 46 | 86 | Dose-dependent effect |
| CN1/C(=C/C=C(Cl)/C=C/C2=[N+](C)c3ccc4ccccc4c3C2(C)C)C(C)(C)c2c1ccc1ccccc21 | inactive | Active | Active | Active | 2 | inactive | 46 | 33 | 42 | 83 | Dose-dependent effect |

The remaining lines, values ahead:

| Activity (Escherichia coli [1]) | Activity (DNA [2]) | Activity (DNA [3]) | Activity (DNA [4]) | Activity (Escherichia coli [5]) [%] | Activity (Escherichia coli [6]) | Activity (Escherichia coli [7]) [%] | Activity (Escherichia coli [8]) [%] | Activity (Escherichia coli [9]) [%] | Activity (Escherichia coli [10]) [%] | Activity (Escherichia coli [11]) | SMILES |
| --- | --- | --- | --- | --- | --- | --- | --- | --- | --- | --- | --- |
| inactive | Active | Active | Active | 2 | inactive | 25 | 18 | 29 | 59 | – | CN1/C(=C/C=C/C=C/C2=[N+](C)c3ccc4ccccc4c3C2(C)C)C(C)(C)c2c1ccc1ccccc21 |
| inactive | Active | Active | Active | 7 | inactive | 47 | 59 | 56 | 78 | Dose-dependent effect | CC1(C)C(/C=C/C(Br)=C/C=C2/N(CCC[N+](C)(C)C)c3ccc4ccccc4c3C2(C)C)=[N+](CCC[N+](C)(C)C)c2ccc3ccccc3c21 |
| – | – | – | Active | 4 | – | 13 | 2 | 8 | 13 | – | CC1(C)C(/C=C/C(Cl)=C/C=C2/N(CCCc3ccccc3)c3ccc4ccccc4c3C2(C)C)=[N+](CCCc2ccccc2)c2ccc3ccccc3c21 |
